Reference: patent US10869931B2, “Polyethylene glycol-modified angiogenesis inhibitor HM-1 and application thereof” (NANJING ANJI BIOLOGICAL TECHNOLOGY CO.,LTD, priority 2016, dated 2020)
Marks after values point to notes of the source that are not given here. Where no end group is shown, it is not given here.

Key:
[1] = system: adjuvant arthritis (AA) SD rats; experiment: Adjuvant arthritis (AA) rat model; assay type: in vivo; conditions: for Joint swelling / Left and right paw swelling / Clinical score: AA SD rats; for Clinical score: maximum score 16
[2] = system: Cervical cancer tumor cells; experiment: MTT proliferation inhibition, cervical cancer cells; assay type: cell-based, human; design: concentration or dose not given beside the values; conditions: 48 h
Method: (§1) The activity of mPEG-HM-1 to inhibit the growth of various tumor cells was examined by MTT assay. The tumor cells were cultured to a concentration of 90% or more in a 37° C., 5% CO2 incubator and collected by trypsinization. The cells were resuspended in the culture medium and counted under a microscope to adjust the cell concentration to 2×10^4 cells/mL, the cell suspension was inoculated into a 96-well plate at 100 μL/well and incubated overnight at 37° C. in a 5% CO2 incubator. mPEG-HM-1 was diluted with the culture solution to each predetermined concentration. Docetaxel is diluted to the final concentration with the culture medium. After the cells were fully attached, each dilution was added to a 96-well plate (100 μL/well). The mPEG-HM-1 dilution was added as a drug-administered group, and docetaxel was added as a positive control group, and a culture solution without any drug was used as a negative control group. Incubate for 48 h at 37° C. in a 5% CO2 incubator. 5 mg/mL of MTT was added to a 96-well plate at 20 μL per well, and incubation was continued for 4 hours. The medium was aspirated, dissolved in 150 μL of DMSO per well, and gently mixed by shaking for 10 min. The absorbance was measured at a measurement wavelength of 570 nm and a reference wavelength of 630 nm using a microplate reader, and the rate of growth inhibition (proliferation inhibition, PI) was calculated. The formula is as follows: PI (%)=1−administration group/negative group
(§2) The test was repeated 3 times independently, and the results obtained by the test were expressed as mean±SD, and the test results are shown in Table 15 to Table 18.

[3] = system: Bladder Cancer tumor cells; experiment: MTT proliferation inhibition, bladder cancer cells; assay type: cell-based, human; design: concentration or dose not given beside the values; conditions: 48 h
Method: as §1, §2

[4] = system: Gastric cancer tumor cells; experiment: MTT proliferation inhibition, gastric cancer cells; assay type: cell-based, human; design: concentration or dose not given beside the values; conditions: 48 h
Method: as §1, §2

[5] = system: Esophageal cancer tumor cells; experiment: MTT proliferation inhibition, esophageal cancer cells; assay type: cell-based, human; design: concentration or dose not given beside the values; conditions: 48 h
Method: as §1, §2

Melanoma tumor cells = experiment: MTT proliferation inhibition, melanoma cells; assay type: cell-based, human; design: concentration or dose not given beside the values; conditions: 48 h
Method: as §1, §2

[6] = system: Human Umbilical Vein Endothelial Cells (HUVEC); experiment: Transwell migration of HUVEC; assay type: cell-based; conditions: 24 h
Method: 10 mg/mL Matrigel was diluted 1:2 with HUVEC-specific medium, spread on a transwell chamber membrane, and air-dried at room temperature. HUVEC cells cultured in logarithmic growth phase were digested with trypsin digest, collected, washed twice with PBS, and resuspended in blank HUVECs-specific medium. The cells were counted under a microscope, and the cell concentration was adjusted to 1×10^5/mL. The test solutions of each group were prepared and diluted to 100 μL with a blank HUVECs-specific medium. The cells were seeded into a transwell chamber at 100 μL per well, and each set of test solution was added to the chamber. The cell culture was stimulated by adding 0.6 mL of endothelial cell culture medium containing 5% fetal bovine serum and 1% ECGS into a 24-well plate, and cultured at 5% CO2 for 24 hour at 37° c. Discard the culture medium in the well, fix it with 90% alcohol at room temperature for 30 minutes, 0.1% crystal violet for 10 min at room temperature, rinse with water, gently wipe off the unsprayed cells in the upper layer with a cotton swab, observe under microscope and select four fields to take pictures. Calculate migration inhibition (MI) according to the formula: […]
Ntest was the number of cell migration in the test group, and Ncontrol was the number of cell migration in the blank control group.
The test was repeated 3 times independently. The results obtained from the test were calculated as mean±SD, and a statistical T test was performed. *P<0.05 was a significant difference, and **P<0.01 was a very significant difference.

[7] = in vivo
[8] = system: IL-1β production by mouse peritoneal macrophages; experiment: IL-1β production by mouse peritoneal macrophages (ELISA); assay type: cell-based; conditions: 48 h
Method: (1) IL-1β production: mice were intraperitoneally injected with 1 mL of broth (containing 6%) starch, and three days later, the mouse peritoneal macrophages were aseptically taken, washed twice with 1640 medium, and the cell concentration was adjusted to 2×10^6 cells/mL, inject into a 24-well culture plate, 1 mL per well, incubate for 3 hours in a cell culture incubator, shake once every 30 minutes, and allow the cells to fully adhere. Then, it was washed twice with the culture solution to remove unattached cells. The blank group was added with PBS, the positive group was added with the positive drug dexamethasone (Dex), the model group was not administered, to the experimental group was added low, medium and high three concentrations of mPEG-HM-1, and the culture was continued for 48 hours after the administration, 1000 r/min. Centrifuge for 15 min. The supernatant was taken as a sample for testing activity of IL-1β.
(2) Determination of IL-1β content: using R&D mouse IL-1β enzyme-linked immunosorbent assay kit, according to the kit instructions as follows: respectively, the tested samples and different concentrations of standard products, sealed with sealing tape the reaction well and incubated at 37° C. for 90 min; the plate was washed four times; the biotinylated antibody working solution (100 μL/well) was added, and the reaction well was sealed with sealing paper, incubated at 37° c. for 60 min; the plate was washed four times; Add the enzyme conjugate working solution (100 μL/well), seal the reaction well with sealing paper, incubate at 37° C. for 30 min; wash the plate four times; add color reagent (100 μL/well), incubate at 37° C. 10-20 min, add stop solution (100 μL/well), mix and measure OD450 value.

[9] = 80 mg/kg subcutaneous once every three days
[10] = 20 mg/kg subcutaneous once every three days
[11] = 10 mg/kg subcutaneous once every three days

Row | Substance | Joint swelling [1, 9] [mm] | Left and right paw swelling [1, 9] [mm] | Clinical score [1, 9] | rate of growth inhibition [2] [%] | rate of growth inhibition [3] [%] | rate of growth inhibition [4] [%] | rate of growth inhibition [5] [%] | rate of growth inhibition (Melanoma tumor cells) [%] | cell migration number (Mean ± SD) ([6]; 90 μg/mL) | inhibition rate of HUVEC migration ([6]; 90 μg/mL) [%*] | cell migration number (Mean ± SD) ([6]; 100 μg/mL) | inhibition rate of HUVEC migration ([6]; 100 μg/mL) [%] | cell migration number (Mean ± SD) ([6]; 110 μg/mL) | inhibition rate of HUVEC migration ([6]; 110 μg/mL) [%] | cell migration number (Mean ± SD) ([6]; 120 μg/mL) | AUC0-∞ [7] [mg/L/h] | CL [7] [mL/min/kg] | MRT0-∞ [7] [h] | T1/2β (half-life) [7] [h] | IL-1β ([8]; 40 μg/mL) [pg/mL] | also measured
1 | mPEG-ALD40k-Arg-Gly-Ala-Asp-Arg-Ala-Gly-Gly-Gly-Gly-Arg-Gly-Asp ({mPEG‑ALD 40 kDa}-RGADRAGGGGRGD) [mPEG-ALD40k-HM-1] | 0.73 ± 0.17 | 3.80 ± 0.65 | 5.76 ± 1.03 | 70.62 ± 19.14 | 43.22 ± 10.31 | 70.66 ± 18.72 | 58.11 ± 14.67 | 75.18 ± 21.75 | 534.34 ± 56.62 | 48.07 | 510.47 ± 60.56 | 50.39 | 471.88 ± 46.27 | 54.14 | 565.31 ± 50.34 | 5276.69 ± 9.84 | 0.108 ± 0.0967 | 16.52 ± 3.06 | 43.31 ± 0.22 | 742.06 ± 16.59 | inhibition rate of HUVEC migration ([6]; 120 μg/mL): 45.06%*; Inhibition Rate of IL-1β production ([8]; 40 μg/mL): 19.07%; IL-1β ([8]; 80 μg/mL): 664.40 ± 18.43 pg/mL; Inhibition Rate of IL-1β production ([8]; 80 μg/mL): 27.54%; IL-1β ([8]; 160 μg/mL): 495.96 ± 10.95 pg/mL; Inhibition Rate of IL-1β production ([8]; 160 μg/mL): 45.91%
2 | mPEG2-NHS40k-Arg-Gly-Ala-Asp-Arg-Ala-Gly-Gly-Gly-Gly-Arg-Gly-Asp ({mPEG2‑NHS 40 kDa}-RGADRAGGGGRGD) [mPEG2-NHS40k-HM-1] | 0.73 ± 0.14 | 3.81 ± 0.63 | 5.89 ± 1.07 | 57.33 ± 14.28 | 45.60 ± 10.11 | 56.39 ± 11.58 | 48.65 ± 12.64 | 66.72 ± 20.85 | 640.05 ± 50.70 | 38.26 | 516.99 ± 60.04 | 50.13 | 464.43 ± 46.48 | 55.20 | 584.48 ± 52.28 | 4579.47 ± 13.52 | 0.11 ± 0.0883 | 15.27 ± 9.37 | 42.25 ± 0.27 | 756.84 ± 15.32 | inhibition rate of HUVEC migration ([6]; 120 μg/mL): 43.62%*; Inhibition Rate of IL-1β production ([8]; 40 μg/mL): 18.28%; IL-1β ([8]; 80 μg/mL): 673.30 ± 16.71 pg/mL; Inhibition Rate of IL-1β production ([8]; 80 μg/mL): 27.30%; IL-1β ([8]; 160 μg/mL): 568.00 ± 10.82 pg/mL; Inhibition Rate of IL-1β production ([8]; 160 μg/mL): 38.67%
3 | mPEG-ALD10k-Arg-Gly-Ala-Asp-Arg-Ala-Gly-Gly-Gly-Gly-Arg-Gly-Asp ({mPEG‑ALD 10 kDa}-RGADRAGGGGRGD) [mPEG-ALD10k-HM-1] | – | – | – | 83.04 ± 18.74 | 52.68 ± 13.12 | 80.01 ± 18.26 | 65.18 ± 15.16 | 88.39 ± 22.38 | – | – | – | – | – | – | – | 5067.98 ± 9.79 | 0.425 ± 0.122 | 11.05 ± 7.68 | 16.46 ± 0.10 | 455.16 ± 10.95 | Joint swelling [1, 10]: 0.68 ± 0.15 mm; Left and right paw swelling [1, 10]: 3.72 ± 0.54 mm; Clinical score [1, 10]: 5.39 ± 1.10; in vivo immune protection effect on adjuvant arthritis model (in words) ([1]; AA rats, subcutaneous, once every three days, vs model group): has the most significant effect; cell migration number (Mean ± SD) ([6]; 50 μg/mL): 604.31 ± 52.14; inhibition rate of HUVEC migration ([6]; 50 μg/mL): 41.27%*; cell migration number (Mean ± SD) ([6]; 60 μg/mL): 514.38 ± 42.38; inhibition rate of HUVEC migration ([6]; 60 μg/mL): 50.01%; cell migration number (Mean ± SD) ([6]; 70 μg/mL): 417.96 ± 50.48; inhibition rate of HUVEC migration ([6]; 70 μg/mL): 59.38%; cell migration number (Mean ± SD) ([6]; 80 μg/mL): 548.54 ± 56.22; inhibition rate of HUVEC migration ([6]; 80 μg/mL): 46.69%*; IL-1β ([8]; 10 μg/mL): 724.09 ± 16.59 pg/mL; Inhibition Rate of IL-1β production ([8]; 10 μg/mL): 21.03%; IL-1β ([8]; 20 μg/mL): 620.94 ± 18.43 pg/mL; Inhibition Rate of IL-1β production ([8]; 20 μg/mL): 32.28%
4 | mPEG-SC5k-Arg-Gly-Ala-Asp-Arg-Ala-Gly-Gly-Gly-Gly-Arg-Gly-Asp ({mPEG‑SC 5 kDa}-RGADRAGGGGRGD) [mPEG-SC5k-HM-1] | – | – | – | 51.11 ± 16.20 | 35.72 ± 11.52 | 52.12 ± 13.22 | 44.38 ± 10.72 | 61.27 ± 18.13 | – | – | – | – | – | – | – | 4391.72 ± 12.85 | 0.997 ± 0.18 | 7.68 ± 2.97 | 8.31 ± 0.12 | – | Joint swelling [1, 11]: 0.74 ± 0.18 mm; Left and right paw swelling [1, 11]: 3.96 ± 0.71 mm; Clinical score [1, 11]: 5.95 ± 1.07; cell migration number (Mean ± SD) ([6]; 30 μg/mL): 617.03 ± 60.97; inhibition rate of HUVEC migration ([6]; 30 μg/mL): 41.83%*; cell migration number (Mean ± SD) ([6]; 40 μg/mL): 517.43 ± 50.39; inhibition rate of HUVEC migration ([6]; 40 μg/mL): 51.22%; cell migration number (Mean ± SD) ([6]; 50 μg/mL): 469.59 ± 48.95; inhibition rate of HUVEC migration ([6]; 50 μg/mL): 55.73%; cell migration number (Mean ± SD) ([6]; 60 μg/mL): 601.65 ± 60.73; inhibition rate of HUVEC migration ([6]; 60 μg/mL): 43.28%*; IL-1β ([8]; 5 μg/mL): 762.83 ± 15.46 pg/mL; Inhibition Rate of IL-1β production ([8]; 5 μg/mL): 18.59%; IL-1β ([8]; 10 μg/mL): 678.12 ± 12.09 pg/mL; Inhibition Rate of IL-1β production ([8]; 10 μg/mL): 27.63%; IL-1β ([8]; 20 μg/mL): 561.18 ± 13.21 pg/mL; Inhibition Rate of IL-1β production ([8]; 20 μg/mL): 40.11%
